How the values were obtained:
[1] = system: collagen induced arthritis; experiment: Collagen induced arthritis in mice; assay type: in vivo, male DBA/1OlaHsd mice; conditions: 30 mg/kg twice daily injection from Day 18
Description: To test these two HDAC6 inhibitors in an animal model of a chronic inflammatory disease a mouse collagen induced arthritis in a semi-therapeutic mode is used. In this study male DBA/1OlaHsd mice, 6 weeks old, are anesthetized with Isoflurane and given 150 μL Type II collagen in Freund's complete adjuvant on Day 0 and Day 21. Treatment with compound is initiated on Day 18. The mice in the treatment groups are injected twice daily with 30 mg/kg of compound in 10% DMSO/10% Solutol HS15/80% 0.9% saline. […] Inflammation in the joints is measured daily and a disease score is calculated based on paw thickness.

HDAC9 = target: T1, HDAC9 (Homo sapiens, UniProt Q9UKV0); experiment: Kinetic HDAC enzyme inhibition assay, HDAC9; assay type: biochemical; conditions: recombinant HDAC
T1 construct: purchased BPS Biosciencies (San Diego, Calif.)
Description: (§1) HDAC inhibitory activity of the compounds described in Table 1 is measured using a kinetic HDAC assay. Recombinant HDACs are obtained from BPS Biosciencies (San Diego, Calif.). […] Fluorescence measurements are obtained approximately once per minute using a multilabel plate reader. Data were analyzed using GraphPad Prism.

human PBMCs = experiment: LPS induced cytokine release from PBMCs; assay type: cell-based; conditions: 1 μM compound, 0.5 ng/ml LPS overnight
Description: Whole blood from three anonymous donors is collected in vacutainer tubes with sodium heparin as an anti-coagulant (Research Blood Components, Brighton, Mass.). A total volume of 30 ml of blood is diluted and layered over Ficoll-Paque Plus (GE Life Sciences) and centrifuged at 400×g for 30 minutes. The peripheral blood mononuclear cell (PBMC) fraction is removed from the interface of plasma and Ficoll and washed once with PBS.
Cells are seeded in 24 well plates at a density of 400,000 cells per well.
After the overnight stimulation the plates are centrifuged at 200×g for 5 minutes. The supernatant is removed and a small aliquot is reserved for determination of TNFα levels by ELISA (R&D Systems, catalog number STA00C). The remainder of the supernatant is frozen at −80° C. and sent to Millipore Bioscience Division (St. Charles, Mo.) for multiplex cytokine analysis.

HDAC5 = target: T2, HDAC5 (Homo sapiens, UniProt Q9UQL6); experiment: Kinetic HDAC enzyme inhibition assay, HDAC5; assay type: biochemical; conditions: recombinant HDAC
T2 construct: purchased BPS Biosciencies (San Diego, Calif.)
Description: as §1

HDAC4 = target: T3, HDAC4 (Homo sapiens, UniProt P56524); experiment: Kinetic HDAC enzyme inhibition assay, HDAC4; assay type: biochemical; conditions: recombinant HDAC
T3 construct: purchased BPS Biosciencies (San Diego, Calif.)
Description: as §1

HDAC1 = target: T4, HDAC1 (Homo sapiens, UniProt Q13547); experiment: Kinetic HDAC enzyme inhibition assay, HDAC1; assay type: biochemical; conditions: recombinant HDAC
T4 construct: purchased BPS Biosciencies (San Diego, Calif.)
Description: as §1

HDAC7 = target: T5, HDAC7 (Homo sapiens, UniProt Q8WUI4); experiment: Kinetic HDAC enzyme inhibition assay, HDAC7; assay type: biochemical; conditions: recombinant HDAC
T5 construct: purchased BPS Biosciencies (San Diego, Calif.)
T5 sequence (Q8WUI4 1-952): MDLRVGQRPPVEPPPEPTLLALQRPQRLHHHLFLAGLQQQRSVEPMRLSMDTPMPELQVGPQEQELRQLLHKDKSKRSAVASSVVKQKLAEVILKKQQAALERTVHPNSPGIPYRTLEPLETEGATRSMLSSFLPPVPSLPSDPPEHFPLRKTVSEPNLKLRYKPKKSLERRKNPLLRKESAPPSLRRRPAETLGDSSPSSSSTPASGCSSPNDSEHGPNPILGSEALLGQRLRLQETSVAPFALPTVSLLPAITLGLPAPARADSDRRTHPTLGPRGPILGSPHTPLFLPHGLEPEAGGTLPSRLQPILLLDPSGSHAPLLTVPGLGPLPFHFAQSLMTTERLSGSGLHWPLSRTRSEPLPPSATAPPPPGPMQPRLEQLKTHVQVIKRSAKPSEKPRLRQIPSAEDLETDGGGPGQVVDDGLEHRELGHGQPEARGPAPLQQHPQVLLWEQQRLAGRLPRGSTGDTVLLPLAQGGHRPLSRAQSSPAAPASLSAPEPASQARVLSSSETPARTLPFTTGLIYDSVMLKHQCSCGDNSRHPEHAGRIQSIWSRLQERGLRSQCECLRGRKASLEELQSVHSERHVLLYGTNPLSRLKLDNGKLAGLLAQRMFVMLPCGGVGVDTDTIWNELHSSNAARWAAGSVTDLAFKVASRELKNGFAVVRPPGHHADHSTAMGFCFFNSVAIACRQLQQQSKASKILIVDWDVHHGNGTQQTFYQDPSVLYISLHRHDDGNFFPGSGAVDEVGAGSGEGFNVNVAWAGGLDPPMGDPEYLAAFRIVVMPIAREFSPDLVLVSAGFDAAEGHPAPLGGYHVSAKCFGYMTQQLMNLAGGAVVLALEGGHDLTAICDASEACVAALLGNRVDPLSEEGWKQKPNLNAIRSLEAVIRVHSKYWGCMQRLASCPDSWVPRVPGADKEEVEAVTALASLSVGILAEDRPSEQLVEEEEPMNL
Description: as §1

HDAC2 = target: T6, HDAC2 (Homo sapiens, UniProt Q92769); experiment: Kinetic HDAC enzyme inhibition assay, HDAC2; assay type: biochemical; conditions: recombinant HDAC
T6 construct: purchased BPS Biosciencies (San Diego, Calif.)
Description: as §1

[2] = system: RAW264.7 mouse macrophages; experiment: TNFα protein and mRNA in LPS stimulated RAW264.7 macrophages; assay type: cell-based; conditions: 10 ng/ml LPS, two hours; for TNFα protein level in supernatant: ELISA; for TNFα mRNA level: RT-PCR relative to GAPDH
Description: The cells are stimulated with 10 ng/ml LPS and incubated for two hours. The cell supernatants are collected and assayed for the level of TNFα by ELISA. The cells are harvested and mRNA purified using an RNEasy kit from Qiagen. The level of TNFα mRNA is determined by RT-PCR using a StepOne Plus real time PCR machine. The change in the relative level of TNFα mRNA as compared to the level of GAPDH mRNA is plotted, along with the concentration of TNFα protein in the supernatant (see FIG. 4).

IL-1β = conditions: Carta et al. 2006; cited from earlier work
[3] = system: proinflammatory cytokines; conditions: Leoni et al. 2002, 2005; cited from earlier work
Class I HDACs and HDAC6 = conditions: Bradner et al. 2010; cited from earlier work

T3 sequence (P56524 whole entry): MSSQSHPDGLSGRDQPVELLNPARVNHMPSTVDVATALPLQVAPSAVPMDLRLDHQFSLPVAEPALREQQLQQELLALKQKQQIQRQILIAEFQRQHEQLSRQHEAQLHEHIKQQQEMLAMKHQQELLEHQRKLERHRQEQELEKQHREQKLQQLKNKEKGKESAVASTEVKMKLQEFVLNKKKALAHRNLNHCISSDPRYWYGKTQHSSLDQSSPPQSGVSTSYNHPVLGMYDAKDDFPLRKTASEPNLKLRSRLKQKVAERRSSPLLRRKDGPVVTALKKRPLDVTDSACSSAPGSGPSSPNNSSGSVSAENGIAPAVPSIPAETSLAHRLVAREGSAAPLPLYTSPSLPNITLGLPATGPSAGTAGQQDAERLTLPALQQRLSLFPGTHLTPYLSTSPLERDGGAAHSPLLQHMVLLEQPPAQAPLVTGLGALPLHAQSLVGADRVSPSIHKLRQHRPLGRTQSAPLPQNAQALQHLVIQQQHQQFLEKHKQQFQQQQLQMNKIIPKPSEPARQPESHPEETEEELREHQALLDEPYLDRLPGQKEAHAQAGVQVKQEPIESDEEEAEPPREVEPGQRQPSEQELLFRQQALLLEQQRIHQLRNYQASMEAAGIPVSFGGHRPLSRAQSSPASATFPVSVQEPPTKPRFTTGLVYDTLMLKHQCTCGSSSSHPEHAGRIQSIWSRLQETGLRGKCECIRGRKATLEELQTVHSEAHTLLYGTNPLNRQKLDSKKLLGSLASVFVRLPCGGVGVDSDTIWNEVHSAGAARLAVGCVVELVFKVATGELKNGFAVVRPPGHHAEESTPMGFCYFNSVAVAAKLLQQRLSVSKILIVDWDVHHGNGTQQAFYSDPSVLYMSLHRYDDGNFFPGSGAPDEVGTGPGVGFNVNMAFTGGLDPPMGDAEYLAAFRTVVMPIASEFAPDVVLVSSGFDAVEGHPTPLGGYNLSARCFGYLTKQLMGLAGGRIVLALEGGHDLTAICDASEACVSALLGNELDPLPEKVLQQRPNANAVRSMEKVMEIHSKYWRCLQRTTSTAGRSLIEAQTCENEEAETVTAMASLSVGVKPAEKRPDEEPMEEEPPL
T6 sequence (Q92769 whole entry): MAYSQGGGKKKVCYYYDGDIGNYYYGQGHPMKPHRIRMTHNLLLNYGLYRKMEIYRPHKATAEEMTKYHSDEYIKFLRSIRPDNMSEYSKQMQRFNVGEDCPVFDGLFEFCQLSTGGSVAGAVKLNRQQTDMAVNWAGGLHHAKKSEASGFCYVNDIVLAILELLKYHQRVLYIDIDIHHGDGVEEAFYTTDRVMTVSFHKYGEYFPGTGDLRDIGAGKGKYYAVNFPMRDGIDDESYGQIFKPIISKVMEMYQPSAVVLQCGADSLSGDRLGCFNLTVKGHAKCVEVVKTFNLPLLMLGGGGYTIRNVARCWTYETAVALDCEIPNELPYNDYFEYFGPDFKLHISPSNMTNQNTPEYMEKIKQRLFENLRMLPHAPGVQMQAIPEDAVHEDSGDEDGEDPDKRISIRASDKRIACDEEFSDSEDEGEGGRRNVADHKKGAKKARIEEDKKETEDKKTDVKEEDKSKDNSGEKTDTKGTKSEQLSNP
T1 sequence (Q9UKV0 whole entry): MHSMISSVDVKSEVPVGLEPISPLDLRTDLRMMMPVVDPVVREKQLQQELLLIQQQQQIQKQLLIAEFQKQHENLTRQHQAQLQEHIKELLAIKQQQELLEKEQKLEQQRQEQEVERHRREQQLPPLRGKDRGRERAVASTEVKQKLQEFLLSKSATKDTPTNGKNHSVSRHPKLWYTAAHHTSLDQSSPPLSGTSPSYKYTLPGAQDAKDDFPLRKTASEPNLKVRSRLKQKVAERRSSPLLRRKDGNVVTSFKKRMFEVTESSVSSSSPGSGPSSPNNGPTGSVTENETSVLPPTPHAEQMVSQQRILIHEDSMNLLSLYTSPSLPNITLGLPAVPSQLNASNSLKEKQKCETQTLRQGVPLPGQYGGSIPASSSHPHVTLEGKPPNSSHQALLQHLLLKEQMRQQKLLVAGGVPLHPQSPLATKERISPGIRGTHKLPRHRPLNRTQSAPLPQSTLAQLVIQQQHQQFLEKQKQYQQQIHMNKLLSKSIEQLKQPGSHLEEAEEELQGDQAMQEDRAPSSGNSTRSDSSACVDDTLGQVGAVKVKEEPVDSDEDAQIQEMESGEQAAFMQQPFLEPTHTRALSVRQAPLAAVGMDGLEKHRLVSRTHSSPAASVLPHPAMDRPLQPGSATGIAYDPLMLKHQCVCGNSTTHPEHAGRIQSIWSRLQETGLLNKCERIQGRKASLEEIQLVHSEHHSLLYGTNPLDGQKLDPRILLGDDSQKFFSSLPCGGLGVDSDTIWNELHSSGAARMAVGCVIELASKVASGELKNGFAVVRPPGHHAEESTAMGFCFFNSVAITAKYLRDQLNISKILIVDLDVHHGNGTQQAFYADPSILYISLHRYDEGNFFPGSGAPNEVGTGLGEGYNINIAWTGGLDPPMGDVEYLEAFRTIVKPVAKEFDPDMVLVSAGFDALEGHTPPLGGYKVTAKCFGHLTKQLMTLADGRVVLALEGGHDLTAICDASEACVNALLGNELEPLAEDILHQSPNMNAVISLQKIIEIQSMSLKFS
T4 sequence (Q13547 whole entry): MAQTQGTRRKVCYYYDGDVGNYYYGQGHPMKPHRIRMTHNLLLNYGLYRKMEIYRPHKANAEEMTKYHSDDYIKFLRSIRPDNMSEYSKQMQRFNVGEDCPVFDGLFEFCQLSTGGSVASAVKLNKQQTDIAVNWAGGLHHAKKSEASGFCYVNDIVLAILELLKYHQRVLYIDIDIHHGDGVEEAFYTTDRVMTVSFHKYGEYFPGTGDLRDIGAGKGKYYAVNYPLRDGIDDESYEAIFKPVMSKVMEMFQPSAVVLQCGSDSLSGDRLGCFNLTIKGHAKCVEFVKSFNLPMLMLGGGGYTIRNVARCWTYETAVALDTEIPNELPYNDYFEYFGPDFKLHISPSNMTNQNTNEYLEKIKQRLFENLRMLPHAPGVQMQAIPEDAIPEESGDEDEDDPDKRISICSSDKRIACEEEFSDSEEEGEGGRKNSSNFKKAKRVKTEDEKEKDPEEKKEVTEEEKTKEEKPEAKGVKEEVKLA
T2 sequence (Q9UQL6 whole entry): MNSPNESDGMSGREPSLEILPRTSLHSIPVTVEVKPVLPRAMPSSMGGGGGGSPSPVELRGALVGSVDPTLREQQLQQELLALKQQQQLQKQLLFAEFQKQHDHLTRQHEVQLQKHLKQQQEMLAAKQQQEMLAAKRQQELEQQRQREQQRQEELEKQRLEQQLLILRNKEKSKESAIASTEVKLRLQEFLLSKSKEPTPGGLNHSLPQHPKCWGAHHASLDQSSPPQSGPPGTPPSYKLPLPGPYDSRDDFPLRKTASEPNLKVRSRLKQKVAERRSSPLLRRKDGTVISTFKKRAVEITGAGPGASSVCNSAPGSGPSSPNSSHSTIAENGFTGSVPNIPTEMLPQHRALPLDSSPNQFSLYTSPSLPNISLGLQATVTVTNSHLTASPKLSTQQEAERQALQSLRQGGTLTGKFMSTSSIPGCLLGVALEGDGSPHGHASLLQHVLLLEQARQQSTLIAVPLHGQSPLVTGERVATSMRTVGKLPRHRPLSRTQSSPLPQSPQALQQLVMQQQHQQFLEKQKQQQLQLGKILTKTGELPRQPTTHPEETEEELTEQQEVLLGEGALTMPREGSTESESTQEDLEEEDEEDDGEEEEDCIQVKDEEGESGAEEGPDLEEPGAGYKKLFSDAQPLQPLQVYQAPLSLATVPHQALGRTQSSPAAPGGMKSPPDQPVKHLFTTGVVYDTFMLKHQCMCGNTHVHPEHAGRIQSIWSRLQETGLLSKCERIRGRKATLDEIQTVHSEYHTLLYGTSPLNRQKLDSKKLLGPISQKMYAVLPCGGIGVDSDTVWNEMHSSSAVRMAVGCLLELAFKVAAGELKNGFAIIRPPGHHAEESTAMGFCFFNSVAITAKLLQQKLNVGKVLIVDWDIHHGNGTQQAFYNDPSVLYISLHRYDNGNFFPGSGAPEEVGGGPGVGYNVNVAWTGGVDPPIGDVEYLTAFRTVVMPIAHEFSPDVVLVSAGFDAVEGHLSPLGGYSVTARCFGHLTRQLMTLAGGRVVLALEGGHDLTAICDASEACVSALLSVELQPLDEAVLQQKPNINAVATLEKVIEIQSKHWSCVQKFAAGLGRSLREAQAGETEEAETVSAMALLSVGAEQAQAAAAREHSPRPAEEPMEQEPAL

| Structure (SMILES) | IC50 (HDAC9) [µM] | Number of LPS induced cytokines decreased (of eight) (human PBMCs) | IC50 (HDAC5) [µM] | IC50 (HDAC4) [µM] | IC50 (HDAC1) [µM] | IC50 (HDAC7) [µM] | IC50 (HDAC2) [µM] | Level of synthesis or intracellular localization of the precursors of IL-1β (IL-1β) | Secretion of mature IL-1β (IL-1β) | also measured |
| --- | --- | --- | --- | --- | --- | --- | --- | --- | --- | --- |
| O=C(CCCCCCNC(=O)c1cnc(N(c2ccccc2)c2ccccc2)nc1)NO [ACY-63] |  |  |  |  |  |  |  |  |  | Decrease of severity of disease (average) [1]: 67% |
| Cc1ccccc1N(c1ccccc1)c1ncc(C(=O)NCCCCCCC(=O)NO)cn1 [ACY-216] | > 10 | three of eight | > 10 | > 10 | 0.057 | > 10 | 0.131 |  |  |  |
| O=C(CCCCCCNC(=O)c1ccc(C(O)(c2ccccn2)c2ccccn2)cc1)NO [ACY-251] | > 10 |  | 5.9 | > 10 | 0.045 | > 10 | 0.096 |  |  |  |
| COC(c1ccc(F)cc1)(c1ccc(F)cc1)c1ccc(C(=O)NCCCCCCC(=O)NO)cc1 [ACY-257] | > 10 | five of eight | 8.2 | > 10 | 0.178 | > 10 | 0.45 |  |  | Effect on production of GM-CSF (human PBMCs): significantly decreasing; Effect on production of IL-1β (human PBMCs): significantly decreasing; Effect on production of IL-6 (human PBMCs): significantly decreasing; Effect on production of IL-7 (human PBMCs): no effect; Effect on production of IL-8 (human PBMCs): no effect; Effect on production of IL-10 (human PBMCs): significantly decreasing; Effect on production of MCP-1 (human PBMCs): no effect; Effect on production of TNF-α (human PBMCs): significantly decreasing; Decrease of severity of disease (average) [1]: 50% |
| O=C(NO)c1cnc(NC2(c3ccccc3)CC2)nc1 [ACY-738] | 0.914 |  | 0.882 | 1.6 |  | 1.6 |  |  |  | TNFα protein level in supernatant [2]: inhibition; TNFα protein level in supernatant ([2]; listed as ACY-739): decreases; TNFα mRNA level [2]: inhibition; TNFα mRNA level ([2]; listed as ACY-739): decreases |
| C[C@@H]1NC(=O)[C@H]2CCCN2C(=O)[C@H](CCCCCC(=O)[C@@H]2CO2)NC(=O)[C@@H](C)NC1=O [HC-toxin] |  |  |  |  |  |  |  | do not affect | inhibit secretion |  |
| CCN(CC)Cc1ccc2cc(COC(=O)Nc3ccc(C(=O)NO)cc3)ccc2c1 [ITF2357] |  |  |  |  |  |  |  | do not affect | inhibit secretion | Levels of proinflammatory cytokines [3]: non-specifically reduce; HDAC class selectivity (Class I HDACs and HDAC6): selective for Class I HDACs and HDAC6 but not Class IIa |
| O=C(CCCCCCC(=O)Nc1ccccc1)NO [SAHA, Suberoylanilide hydroxamic acid] |  | six out of eight |  |  |  |  |  | do not affect | inhibit secretion | Levels of proinflammatory cytokines [3]: non-specifically reduce |
| CC(/C=C/C(=O)NO)=C\[C@@H](C)C(=O)c1ccc(N(C)C)cc1 [Trichostatin A] |  |  |  |  |  |  |  | do not affect | inhibit secretion |  |
| O=C(CCCCCCC(=O)Nc1ccc([C@H]2O[C@@H](CSc3nc(-c4ccccc4)c(-c4ccccc4)o3)C[C@@H](c3ccc(CO)cc3)O2)cc1)NO [tubacin] |  |  |  |  |  |  |  | do not affect | inhibit secretion |  |
